Patent US12077503B2, “Substituted cyclic amides and their use as herbicides” (FMC CORPORATION, priority 2015, dated 2024)

Legend:
Format in all cases: in vivo
[1] = test system: sedge, umbrella (small-flower umbrella sedge, Cyperus difformis); assay: Test B flooded paddy test; details: Cyperus difformis, 250 g ai/ha, Flood; 0 to 100 scale where 0 is no effect and 100 is complete control; read-out: Sedge, Umbrella plant response rating
In short: (§1)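 Response scored visually against untreated controls, 0 = no effect and 100 = complete control, 13–15 d after treatment in the greenhouse. Compounds added to paddy water held 3 cm above soil surface. Treatment given at 2-leaf stage.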

[2] = test system: barnyardgrass (Echinochloa crus-galli); assay: Test B flooded paddy test; details: Echinochloa crus-galli, 250 g ai/ha, Flood; 0 to 100 scale where 0 is no effect and 100 is complete control; read-out: Barnyardgrass plant response rating
In short: as §1

[3] = test system: ducksalad (Heteranthera limosa); assay: Test B flooded paddy test; details: Heteranthera limosa, 250 g ai/ha, Flood; 0 to 100 scale where 0 is no effect and 100 is complete control; read-out: Ducksalad plant response rating
In short: as §1

rice (Oryra sativa) = assay: Test B flooded paddy test; details: Oryza sativa, 250 g ai/ha, Flood; 0 to 100 scale where 0 is no effect and 100 is complete control; read-out: Rice plant response rating
In short: as §1

Kochia (Kochia scoparia) [4] = assay: Test A preemergence; details: Bassia scoparia, pre-emergence, 240 h, Preemergence
In short: (§2)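 Treatment is preemergence as a directed soil spray after planting, or postemergence at the one- to two-leaf stage, with test chemical in a non-phytotoxic solvent mixture plus surfactant. Plants stay in the greenhouse about 10 d before visual injury scoring on a 0 to 100 scale versus untreated controls.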

[5] = test system: pigweed (Amaranthus retroflexus); assay: Test A preemergence; details: Amaranthus retroflexus, pre-emergence, 240 h, Preemergence
[6] = test system: barnyardgrass (Echinochloa crus-galli); assay: Test A preemergence; details: Echinochloa crus-galli, pre-emergence, 240 h, Preemergence
In short: as §2

[7] = test system: ragweed (common ragweed, Ambrosia elatior); assay: Test A preemergence; details: Ambrosia artemisiifolia, pre-emergence, 240 h, Preemergence
In short: as §2

[8] = test system: ryegrass, Italian (Italian ryegrass, Lolium multiflorum); assay: Test A preemergence; details: Lolium multiflorum, pre-emergence, 240 h, Preemergence
In short: as §2

[9] = test system: giant foxtail (Setaria faberii); assay: Test A preemergence; details: Setaria faberi, pre-emergence, 240 h, Preemergence
In short: as §2

Kochia (Kochia scoparia) [10] = assay: Test A postemergence; details: Bassia scoparia, post-emergence, 240 h, Postemergence, read-out: Plant response rating, Kochia
In short: as §2

[11] = test system: blackgrass (Alopecurus myosuroides); assay: Test A postemergence; details: Alopecurus myosuroides, post-emergence, 240 h, Postemergence, read-out: Plant response rating, Blackgrass
In short: as §2

[12] = test system: pigweed (Amaranthus retroflexus); assay: Test A postemergence; details: Amaranthus retroflexus, post-emergence, 240 h, Postemergence, read-out: Plant response rating, Pigweed
In short: as §2

[13] = test system: barnyardgrass (Echinochloa crus-galli); assay: Test A postemergence; details: Echinochloa crus-galli, post-emergence, 240 h, Postemergence, read-out: Plant response rating, Barnyardgrass
In short: as §2

[14] = test system: ragweed (common ragweed, Ambrosia elatior); assay: Test A postemergence; details: Ambrosia artemisiifolia, post-emergence, 240 h, Postemergence, read-out: Plant response rating, Ragweed
In short: as §2

[15] = test system: wheat (Triticum aestivum); assay: Test A postemergence; details: Triticum aestivum, post-emergence, 240 h, Postemergence, read-out: Plant response rating, Wheat
In short: as §2

[16] = test system: ryegrass, Italian (Italian ryegrass, Lolium multiflorum); assay: Test A postemergence; details: Lolium multiflorum, post-emergence, 240 h, Postemergence, read-out: Plant response rating, Ryegrass, Italian
In short: as §2

[17] = test system: giant foxtail (Setaria faberii); assay: Test A postemergence; details: Setaria faberi, post-emergence, 240 h, Postemergence, read-out: Plant response rating, Foxtail, Giant
In short: as §2

corn (Zea mays) = assay: Test A postemergence; details: Zea mays, post-emergence, 240 h, Postemergence
In short: as §2

[18] = test system: Galium (catchweed bedstraw, Galium aparine); assay: Test A postemergence; details: Galium, post-emergence, 240 h, Postemergence, read-out: Plant response rating, Galium
In short: as §2

[19] = 125 g ai/ha, visual injury after approximately 10 d, 0 to 100 scale where 0 is no effect and 100 is complete control
[20] = 31 g ai/ha, visual injury after approx. 10 d, 0 to 100 scale, 0 no effect, 100 complete control

O=C(Nc1ccc(F)c(F)c1F)[C@H]1C(=O)N(C2CC2)CC[C@@H]1c1ccc(F)cc1 [Compound 1004]
60%: pest or weed control at 250 g/ha [3]
0%: pest or weed control at 250 g/ha [1] | pest or weed control at 250 g/ha [2] | pest or weed control at 250 g/ha (rice (Oryra sativa)) | pest or weed control at 31 g/ha (Kochia (Kochia scoparia) [4]; 31 g ai/ha, 0 to 100 scale where 0 is no effect and 100 is complete control, read-out: Kochia plant response rating) | pest or weed control at 125 g/ha (Kochia (Kochia scoparia) [4]; 125 g ai/ha, visual injury rating after approximately 10 d, read-out: Kochia plant response rating (0 to 100 scale, 0 is no effect, 100 is complete control)) | pest or weed control at 31 g/ha ([5]; 31 g ai/ha, 0 to 100 scale where 0 is no effect and 100 is complete control, read-out: Pigweed plant response rating) | pest or weed control at 125 g/ha ([5]; 125 g ai/ha, visual injury rating after approximately 10 d, read-out: Pigweed plant response rating (0 to 100 scale, 0 is no effect, 100 is complete control)) | pest or weed control at 125 g/ha ([6]; 125 g ai/ha, visual injury rating after approximately 10 d, read-out: Barnyardgrass plant response rating (0 to 100 scale, 0 is no effect, 100 is complete control)) | pest or weed control at 31 g/ha ([6]; 31 g ai/ha, 0 to 100 scale (0 no effect, 100 complete control), read-out: Plant response rating, Barnyardgrass) | pest or weed control at 31 g/ha ([7]; 31 g ai/ha, 0 to 100 scale where 0 is no effect and 100 is complete control, read-out: Ragweed plant response rating) | pest or weed control at 125 g/ha ([7]; 125 g ai/ha, visual injury rating after approximately 10 d, read-out: Ragweed plant response rating (0 to 100 scale, 0 is no effect, 100 is complete control)) | pest or weed control at 31 g/ha ([8]; 31 g ai/ha, 0 to 100 scale where 0 is no effect and 100 is complete control, read-out: Ryegrass, Italian plant response rating) | pest or weed control at 125 g/ha ([8]; 125 g ai/ha, visual injury rating after approximately 10 d, read-out: Ryegrass, Italian plant response rating (0 to 100 scale, 0 is no effect, 100 is complete control)) | pest or weed control at 31 g/ha ([9]; 31 g ai/ha, 0 to 100 scale (0 no effect, 100 complete control), read-out: Plant response rating, Foxtail, Giant) | pest or weed control at 125 g/ha (Kochia (Kochia scoparia) [10]; [19]) | pest or weed control at 31 g/ha (Kochia (Kochia scoparia) [10]; [20]) | pest or weed control at 125 g/ha [11, 19] | pest or weed control at 31 g/ha [11, 20] | pest or weed control at 125 g/ha [12, 19] | pest or weed control at 31 g/ha [12, 20] | pest or weed control at 125 g/ha [13, 19] | pest or weed control at 31 g/ha [13, 20] | pest or weed control at 125 g/ha [14, 19] | pest or weed control at 31 g/ha [14, 20] | plant injury at 125 g/ha [15, 19] | plant injury at 31 g/ha [15, 20] | pest or weed control at 125 g/ha [16, 19] | pest or weed control at 31 g/ha [16, 20] | pest or weed control at 125 g/ha [17, 19] | pest or weed control at 31 g/ha [17, 20] | Corn plant response rating (crop injury, 0 = no effect, 100 = complete kill) at 125 g/ha (corn (Zea mays); [19]) | Corn plant response rating (crop injury, 0 = no effect, 100 = complete kill) at 31 g/ha (corn (Zea mays); [20]) | pest or weed control at 125 g/ha [18, 19] | pest or weed control at 31 g/ha [18, 20]
30%: pest or weed control at 125 g/ha ([9]; 125 g ai/ha, visual injury rating after approximately 10 d, read-out: Foxtail, Giant plant response rating (0 to 100 scale, 0 is no effect, 100 is complete control))
